Molecular target: T1, S. aureus PrsA-PPIase (Staphylococcus aureus, UniProt P60747)
T1 construct: parvulin-type PPIase domain, residues 140-245, GST fusion (pGEX-2T) from E. coli BL21, GST cleaved off by protease; 15N- or 13C/15N-labelled for NMR
Assay: NMR titration
Format: binding
Details: S1-H1 loop; data not shown

T1 sequence (P60747 140-245): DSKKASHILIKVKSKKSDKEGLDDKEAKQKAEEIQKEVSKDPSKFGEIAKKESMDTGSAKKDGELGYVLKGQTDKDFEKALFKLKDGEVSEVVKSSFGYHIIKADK

O=S(=O)(O)O [sodium sulphate]
NMR titration: Binding of multivalent anions to the S1-H1 loop of PrsA-PPIase was also confirmed by NMR titrations

— article PMC2678132, “Solution structure of the parvulin-type PPIase domain of Staphylococcus aureus PrsA – Implications for the catalytic mechanism of parvulins” (BMC Structural Biology, 2009)
